Assay results as given in patent US20250129049A1, “1H-PYRAZOLE-3-AMINE DERIVATIVE HAVING BICYCLIC BACKBONE” (Sumitomo Pharma Co., Ltd., priority 2021, published 2025).
Each block holds one molecule with its values, some of them ahead of it.

What was measured:
ES-2 cells = test: Cell growth suppression experiment (ES-2); assay type: cell-based; settings: Homo sapiens, 48 h, cultured 2 days, CellTiter-Glo 3D
Method: ES-2 cells were obtained from the American Type Culture Collection (ATCC). These cells were cultured at 37° C. in the presence of 5% CO2 in a McCoy's 5a medium containing 10% fetal bovine serum and 1% penicillin/streptomycin.
500 cells were seeded for each well in a 384-well plate, and the evaluated compound was added to the final DMSO concentration of 0.1% to culture the cells for 2 days. After completion of the culture, the cell viability rate was calculated using CellTiter-Glo (registered trademark) 3D Reagent (Promega, G968B).

CHK1 kinase = CHK1 kinase (Homo sapiens (Human), UniProt O14757)
CHK1 kinase, sequence (O14757 whole entry): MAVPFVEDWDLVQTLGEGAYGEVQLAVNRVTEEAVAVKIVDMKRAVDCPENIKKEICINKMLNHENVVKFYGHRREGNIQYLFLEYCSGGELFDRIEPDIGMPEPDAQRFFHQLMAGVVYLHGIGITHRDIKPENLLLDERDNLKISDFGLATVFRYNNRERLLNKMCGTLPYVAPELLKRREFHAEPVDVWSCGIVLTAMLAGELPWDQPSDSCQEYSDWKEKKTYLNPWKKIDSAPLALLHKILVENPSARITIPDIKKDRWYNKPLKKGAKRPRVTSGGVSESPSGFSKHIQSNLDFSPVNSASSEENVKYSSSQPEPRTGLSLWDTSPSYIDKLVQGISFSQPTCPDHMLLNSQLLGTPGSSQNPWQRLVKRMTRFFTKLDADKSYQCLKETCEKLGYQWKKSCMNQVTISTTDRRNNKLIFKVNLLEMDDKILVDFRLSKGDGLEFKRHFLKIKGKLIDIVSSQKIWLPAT

[1] = Pharmacokinetic test, intravenous administration to mice; assay type: in vivo; settings: female, BALB/c, mouse, plasma, liposome formulations, 1.0 mg/kg i.v., trapezoidal method, 0 hours to last quantifiable time
Method: Blood was collected over time up to 72 hours after administration from the jugular vein under no anesthesia.

[2] = Liposome encapsulation test; assay type: physicochemical; settings: concentration upon compound introduction 2 or 3 mg/mL
Method: 6.48 g of hydrogenated soybean phosphatidylcholine (COATSOME NC-21E, NOF Corporation), 2.32 g of cholesterol (Sigma) and 2.06 g of distearoylphosphatidylethanolamine-methoxypolyethylene glycol 2000 (SUNBRIGHT DSPE-020CN, NOF Corporation) were dissolved in 560 mL of t-butyl alcohol heated to 65° C. The solution was frozen with dry ice/acetone bath and t-butyl alcohol was then removed by evaporation under reduced pressure to obtain a lipid mixture.
200 mL of 250 mM ammonium sulfate solution was added to the lipid mixture. The resulting mixture was heated to 65° C. and dispersed with a homogenizer (ULTRA-TURRAX, IKA) to obtain a crude liposome dispersion. […] A dialysis cassette (Slide-A-Lyzer G2 Dialysis Cassettes 20K MWCO, Thermo Scientific) was used to replace the outer aqueous phase of the liposome with a 10 mM L-histidine buffer/10% sucrose solution (pH 6.5) to obtain an empty liposome solution. The solution was filtered through a 0.22 μm membrane filter, and a 10 mM L-histidine buffer/10% sucrose solution (pH 6.5) was added to adjust the total lipid concentration to be 75 mM (75 μmol/mL) or 50 mM (50 μmol/mL). The prepared amount was increased or decreased appropriately.
2 to 3 mg of the test compound was weighed out. 1 mL of the empty liposome solution with a total lipid concentration of 50 mM was added. An aqueous 1 mol/L hydrochloric acid or 1 mol/L sodium hydroxide solution was added to adjust the pH to 5.5 to 7. […] Insoluble substances, when present, were removed by centrifugation for 5 minutes at 15,000× g.
The liposome encapsulation ratio was calculated as follows.
100 μL of liposome solution was passed through an ultrafiltration filter (Amicon Ultra, 100K, 0.5 mL, Merck), and centrifuged at 4° C. at 15,000×g for 10 minutes. The concentration of the compound in the filtrate after ultrafiltration was measured by HPLC as the unencapsulated compound concentration.
The liposome solution was diluted with a trifluoroacetic acid/water/methanol mixture (0.1/25/75) and was left standing for 10 minutes or longer at 5° C. The solution was centrifuged for 5 minutes at 15,000× g to remove insoluble substances. The compound concentration in the supernatant was measured by HPLC as the compound concentration in the liposome solution.
The encapsulation ratio and the encapsulation efficiency were calculated by the following equations.
HPLC measurement conditions are the following.

hERG = hERG (Homo sapiens (Human), UniProt Q12809); test: in vitro; settings: CHO cells stably expressing hERG
hERG, sequence (Q12809 whole entry): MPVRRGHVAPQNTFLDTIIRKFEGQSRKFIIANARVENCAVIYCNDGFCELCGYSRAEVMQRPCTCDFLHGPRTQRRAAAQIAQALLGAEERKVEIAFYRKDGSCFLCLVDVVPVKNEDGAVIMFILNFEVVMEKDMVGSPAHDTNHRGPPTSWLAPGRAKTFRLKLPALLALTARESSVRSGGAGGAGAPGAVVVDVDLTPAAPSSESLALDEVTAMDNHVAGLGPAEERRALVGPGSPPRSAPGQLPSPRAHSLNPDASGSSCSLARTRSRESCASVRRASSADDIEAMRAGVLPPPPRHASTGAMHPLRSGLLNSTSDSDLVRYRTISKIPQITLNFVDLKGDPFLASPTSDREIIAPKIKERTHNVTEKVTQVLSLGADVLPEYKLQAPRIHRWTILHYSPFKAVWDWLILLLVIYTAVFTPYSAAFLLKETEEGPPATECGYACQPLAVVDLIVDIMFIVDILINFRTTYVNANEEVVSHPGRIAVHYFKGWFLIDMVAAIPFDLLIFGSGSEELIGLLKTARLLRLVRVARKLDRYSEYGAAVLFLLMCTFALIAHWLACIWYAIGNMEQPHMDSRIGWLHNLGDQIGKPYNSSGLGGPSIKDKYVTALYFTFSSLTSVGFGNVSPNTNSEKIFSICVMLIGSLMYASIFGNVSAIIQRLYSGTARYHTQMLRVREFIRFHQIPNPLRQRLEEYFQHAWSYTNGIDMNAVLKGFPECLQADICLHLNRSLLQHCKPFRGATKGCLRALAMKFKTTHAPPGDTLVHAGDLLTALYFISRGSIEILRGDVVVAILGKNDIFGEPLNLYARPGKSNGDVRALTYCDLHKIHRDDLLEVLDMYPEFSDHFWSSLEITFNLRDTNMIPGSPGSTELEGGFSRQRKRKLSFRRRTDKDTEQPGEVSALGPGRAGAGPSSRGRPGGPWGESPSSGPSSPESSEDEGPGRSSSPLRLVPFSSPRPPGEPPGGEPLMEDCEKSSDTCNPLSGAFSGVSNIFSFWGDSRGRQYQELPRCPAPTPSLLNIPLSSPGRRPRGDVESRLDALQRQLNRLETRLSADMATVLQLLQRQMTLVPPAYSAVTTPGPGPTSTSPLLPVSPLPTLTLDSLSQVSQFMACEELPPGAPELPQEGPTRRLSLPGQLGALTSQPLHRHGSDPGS

hERG current = hERG current (Homo sapiens (Human), UniProt Q12809); test: cell-based
hERG current, sequence (Q12809 whole entry): as above

HT1080 cells = test: Cell growth suppression test on various cancer cell lines: HT1080; assay type: cell-based; settings: Homo sapiens, HT-1080, 72 h; HT1080 (soft tissue sarcoma), cultured 3 days
Method: (§1) HT1080 cells (derived from soft tissue sarcoma) were cultured at 37° C. in the presence of 5% CO2 in an EMEM medium containing 10% fetal bovine serum and 1% penicillin/streptomycin. SJCRH30 cells (derived from soft tissue sarcoma) and BxPC3 cells (derived from pancreatic cancer) were cultured at 37° C. in the presence of 5% C02 in a McCoy's 5a medium containing 10% fetal bovine serum and 1% penicillin/streptomycin. SW948 cells (derived from colon cancer) were cultured at 37° C. in air in a L-15 medium containing 10% fetal bovine serum and 1% penicillin/streptomycin.
(§2) The cells were seeded for each well in a 96-well plate at 70-90% confluency 96 hours after seeding, the evaluated compound was added to the final DMSO concentration of 0.1%, and the cells were cultured for 3 days. After completion of the culture, the cell viability rate was calculated using CellTiter-Glo (registered trademark) 3D Reagent (Promega, G968B).

SW948 cells = test: Cell growth suppression test on various cancer cell lines: SW948; assay type: cell-based; settings: Homo sapiens, 72 h; SW948 (colon cancer), cultured 3 days
Method: as §1, §2

SJCRH30 cells = test: Cell growth suppression test on various cancer cell lines: SJCRH30; assay type: cell-based; settings: 72 h; SJCRH30 (soft tissue sarcoma), cultured 3 days
Method: as §1, §2

BxPC3 cells = test: Cell growth suppression test on various cancer cell lines: BxPC3; assay type: cell-based; settings: Homo sapiens, BXPC-3, 72 h; BxPC3 (pancreatic cancer), cultured 3 days
Method: as §1, §2

SMILES: N#Cc1cnc(Nc2cc(-c3c(OCC4(CN)CC4)cnc4c3OCC4)[nH]n2)cn1 [Example 14, 5-{[5-(6-{[1-(aminomethyl)cyclopropyl]methoxy)-2,3-dihydrofuro[3,2-b]pyridin-7-yl)-1H-pyrazol-3-yl]amino}pyrazine-2-carbonitrile]
- IC50 (ES-2 cells): 3.72 nM
- IC50 (CHK1 kinase): 0.27 nM
- AUC(0-t) [1]: 397 µg·h/mL
- Compound concentration in liposome solution [2]: 1940 µg/mL
- Encapsulation ratio [2]: 99.9%
- selectivity ratio (hERG): ≥ 800
- IC50 (hERG current): > 10000 nM

SMILES: C[C@H](CN)COc1cnc2c(c1-c1cc(Nc3cnc(C#N)cn3)n[nH]1)OCC2 [Example 28, 5-[(5-{6-[(2R)-3-amino-2-methylpropoxy]-2,3-dihydrofuro[3,2-b]pyridin-7-yl}-1H-pyrazol-3-yl)amino]pyrazine-2-carbonitrile]
- IC50 (ES-2 cells): 6.4 nM
- IC50 (HT1080 cells): < 3 nM
- IC50 (CHK1 kinase): 0.43 nM
- IC50 (SW948 cells): 5 nM
- IC50 (SJCRH30 cells): < 3 nM
- IC50 (BxPC3 cells): < 3 nM

SMILES: N#Cc1cnc(Nc2cc(-c3c(OCCCN)ccc4ccnn34)[nH]n2)cn1 [Example 6, 5-({5-[6-(3-aminopropoxy)pyrazolo[1,5-a]pyridin-7-yl]-1H-pyrazol-3-yl}amino)pyrazine-2-carbonitrile]
- IC50 (ES-2 cells): 6.24 nM
- IC50 (CHK1 kinase): 0.21 nM
- AUC(0-t) [1]: 430 µg·h/mL
- Compound concentration in liposome solution [2]: 1880 µg/mL
- Encapsulation ratio [2]: 100.0%
- IC50 (hERG current): 1300 nM

SMILES: N#Cc1cnc(Nc2cc(-c3c(OCC4(F)CNC4)cnc4cccnc34)[nH]n2)cn1 [Example 35, 5-[(5-{3-[(3-fluoroazetidin-3-yl)methoxy]-1,5-naphthyridin-4-yl}-1H-pyrazol-3-yl)amino]pyrazine-2-carbonitrile]
- IC50 (ES-2 cells): 8 nM
- IC50 (CHK1 kinase): 0.6 nM
- selectivity ratio (hERG): ≥ 800
- IC50 (hERG current): > 10000 nM

- IC50 (HT1080 cells): 14.9 nM
- IC50 (SW948 cells): 38.9 nM
- Compound concentration in liposome solution [2]: 2160 µg/mL
- IC50 (SJCRH30 cells): 4.9 nM
- IC50 (BxPC3 cells): 9.5 nM
SMILES: COc1cccc(OCCCN)c1-c1cc(Nc2cnc(C#N)cn2)n[nH]1 [Prexasertib, reference compound]
- IC50 (ES-2 cells): 8.55 nM

SMILES: N#Cc1cnc(Nc2cc(-c3c(OCCCN)cnc4cccnc34)[nH]n2)cn1 [Example 8, 5-({5-[3-(3-aminopropoxy)-1,5-naphthyridin-4-yl]-1H-pyrazol-3-yl}amino)pyrazine-2-carbonitrile]
- IC50 (ES-2 cells): 7.02 nM
- IC50 (HT1080 cells): 9.1 nM
- IC50 (CHK1 kinase): 0.5 nM
- IC50 (SW948 cells): 22.3 nM
- IC50 (SJCRH30 cells): < 3 nM
- IC50 (BxPC3 cells): 7 nM
